Test results published in the NIST ThermoML archive (doi:10.1021/je700260f).
± gives the expanded uncertainty stated by the source.

Details: 333.16 K, Liquid, Vibrating tube method

FC(C(F)(F)F)C(F)(F)F [1,1,1,2,3,3,3-heptafluoropropane]
mass density (17241 kPa): 1375.9 ± 1.6 kg/m3 | mass density (17263 kPa): 1376.1 ± 1.6 kg/m3 | mass density (17300 kPa): 1376.3 ± 1.6 kg/m3 | mass density (17322 kPa): 1376.4 ± 1.6 kg/m3 | mass density (17351 kPa): 1376.5 ± 1.6 kg/m3 | mass density (17370 kPa): 1376.8 ± 1.6 kg/m3 | mass density (17482 kPa): 1377.4 ± 1.6 kg/m3 | mass density (17509 kPa): 1377.4 ± 1.6 kg/m3 | mass density (17532 kPa): 1377.7 ± 1.6 kg/m3 | mass density (17563 kPa): 1377.9 ± 1.6 kg/m3 | mass density (17589 kPa): 1378 ± 1.6 kg/m3 | mass density (17619 kPa): 1378.1 ± 1.6 kg/m3 | mass density (17654 kPa): 1378.4 ± 1.6 kg/m3 | mass density (17680 kPa): 1378.6 ± 1.6 kg/m3 | mass density (17707 kPa): 1378.7 ± 1.6 kg/m3 | mass density (17741 kPa): 1378.9 ± 1.6 kg/m3 | mass density (17766 kPa): 1379.1 ± 1.6 kg/m3 | mass density (17788 kPa): 1379.2 ± 1.6 kg/m3 | mass density (17814 kPa): 1379.3 ± 1.6 kg/m3 | mass density (17848 kPa): 1379.5 ± 1.6 kg/m3 | mass density (17875 kPa): 1379.6 ± 1.6 kg/m3 | mass density (18144 kPa): 1381.2 ± 1.6 kg/m3 | mass density (18172 kPa): 1381.4 ± 1.6 kg/m3 | mass density (18199 kPa): 1381.6 ± 1.6 kg/m3 | mass density (18229 kPa): 1381.8 ± 1.6 kg/m3 | mass density (18263 kPa): 1382 ± 1.6 kg/m3 | mass density (18289 kPa): 1382 ± 1.6 kg/m3 | mass density (18321 kPa): 1382.2 ± 1.6 kg/m3 | mass density (18352 kPa): 1382.4 ± 1.6 kg/m3 | mass density (18378 kPa): 1382.7 ± 1.6 kg/m3 | mass density (18409 kPa): 1382.9 ± 1.6 kg/m3 | mass density (18440 kPa): 1382.9 ± 1.6 kg/m3 | mass density (18582 kPa): 1383.6 ± 1.6 kg/m3 | mass density (18605 kPa): 1383.8 ± 1.6 kg/m3 | mass density (18633 kPa): 1384.2 ± 1.6 kg/m3 | mass density (18653 kPa): 1384.2 ± 1.6 kg/m3 | mass density (18684 kPa): 1384.3 ± 1.6 kg/m3 | mass density (18715 kPa): 1384.6 ± 1.6 kg/m3 | mass density (18741 kPa): 1384.6 ± 1.6 kg/m3 | mass density (18777 kPa): 1384.9 ± 1.6 kg/m3 | mass density (18809 kPa): 1385.1 ± 1.6 kg/m3 | mass density (18836 kPa): 1385.3 ± 1.6 kg/m3 | mass density (18859 kPa): 1385.4 ± 1.6 kg/m3 | mass density (18889 kPa): 1385.6 ± 1.6 kg/m3 | mass density (18924 kPa): 1385.8 ± 1.6 kg/m3 | mass density (18951 kPa): 1385.8 ± 1.6 kg/m3 | mass density (18974 kPa): 1385.9 ± 1.6 kg/m3 | mass density (19009 kPa): 1386.3 ± 1.6 kg/m3 | mass density (19047 kPa): 1386.4 ± 1.6 kg/m3 | mass density (19071 kPa): 1386.6 ± 1.6 kg/m3 | mass density (19105 kPa): 1386.7 ± 1.6 kg/m3 | mass density (19128 kPa): 1386.7 ± 1.6 kg/m3 | mass density (19166 kPa): 1387 ± 1.6 kg/m3 | mass density (19192 kPa): 1387.1 ± 1.6 kg/m3 | mass density (19220 kPa): 1387.4 ± 1.6 kg/m3 | mass density (19248 kPa): 1387.5 ± 1.6 kg/m3 | mass density (19286 kPa): 1387.9 ± 1.6 kg/m3 | mass density (19310 kPa): 1387.8 ± 1.6 kg/m3 | mass density (19346 kPa): 1388 ± 1.6 kg/m3 | mass density (19381 kPa): 1388.3 ± 1.6 kg/m3 | mass density (19409 kPa): 1388.4 ± 1.6 kg/m3 | mass density (19445 kPa): 1388.6 ± 1.6 kg/m3 | mass density (19468 kPa): 1388.8 ± 1.6 kg/m3 | mass density (19716 kPa): 1390.1 ± 1.6 kg/m3 | mass density (19745 kPa): 1390.3 ± 1.6 kg/m3 | mass density (19776 kPa): 1390.5 ± 1.6 kg/m3 | mass density (19803 kPa): 1390.5 ± 1.6 kg/m3 | mass density (19831 kPa): 1390.7 ± 1.6 kg/m3 | mass density (19870 kPa): 1391 ± 1.6 kg/m3 | mass density (19894 kPa): 1391 ± 1.6 kg/m3 | mass density (19927 kPa): 1391.2 ± 1.6 kg/m3 | mass density (19959 kPa): 1391.4 ± 1.6 kg/m3 | mass density (19987 kPa): 1391.6 ± 1.6 kg/m3 | mass density (20022 kPa): 1391.8 ± 1.6 kg/m3 | mass density (20050 kPa): 1391.9 ± 1.6 kg/m3 | mass density (20077 kPa): 1392 ± 1.6 kg/m3 | mass density (20115 kPa): 1392.3 ± 1.6 kg/m3 | mass density (20146 kPa): 1392.4 ± 1.6 kg/m3 | mass density (20174 kPa): 1392.5 ± 1.6 kg/m3 | mass density (20207 kPa): 1392.8 ± 1.6 kg/m3 | mass density (20238 kPa): 1392.9 ± 1.6 kg/m3 | mass density (20266 kPa): 1393.1 ± 1.6 kg/m3 | mass density (20294 kPa): 1393.3 ± 1.6 kg/m3 | mass density (20328 kPa): 1393.5 ± 1.6 kg/m3 | mass density (20352 kPa): 1393.5 ± 1.6 kg/m3 | mass density (20393 kPa): 1393.9 ± 1.6 kg/m3 | mass density (20421 kPa): 1393.8 ± 1.6 kg/m3 | mass density (20453 kPa): 1394.1 ± 1.6 kg/m3 | mass density (20487 kPa): 1394.3 ± 1.6 kg/m3 | mass density (20512 kPa): 1394.4 ± 1.6 kg/m3 | mass density (20545 kPa): 1394.6 ± 1.6 kg/m3 | mass density (20579 kPa): 1394.8 ± 1.6 kg/m3 | mass density (20612 kPa): 1395 ± 1.6 kg/m3 | mass density (20640 kPa): 1395.1 ± 1.6 kg/m3 | mass density (20661 kPa): 1395.4 ± 1.6 kg/m3 | mass density (20682 kPa): 1395.2 ± 1.6 kg/m3 | mass density (20713 kPa): 1395.4 ± 1.6 kg/m3 | mass density (21425 kPa): 1399.3 ± 1.6 kg/m3 | mass density (21458 kPa): 1399.4 ± 1.6 kg/m3 | mass density (21479 kPa): 1399.5 ± 1.6 kg/m3 | mass density (21507 kPa): 1399.6 ± 1.6 kg/m3 | mass density (21537 kPa): 1399.9 ± 1.6 kg/m3 | mass density (21562 kPa): 1399.9 ± 1.6 kg/m3
